Reference: patent publication US7960415B2, “Caspase inhibitors and uses thereof” (Vertex Pharmaceutical Incoporated, priority 2003, dated 2011)

Legend:
[1] = test system: IL-1β secretion from human whole blood; test: Inhibition of IL-1β secretion from whole blood; assay type: cell-based; details: human whole blood diluted 1:2, LPS 5 ng/ml, 18 hours, ELISA
Experimental: Human blood is freshly drawn from healthy donors and diluted 1:2 in PBS. To 500 μl of diluted blood […] of prediluted test compound in RPMI medium and […] LPS (5 ng/ml final concentration on the plate) are added (LPS, Serotype 0111:B4, Sigma L3012). After stimulation for 18 hours supernatants are collected and assayed for IL-1β levels using the appropriate ELISA kit (R&D systems).

rat cortical neurons = test: Hypoxia-induced apoptosis of rat cortical neurons; assay type: cell-based, Wistar rat; details: Cortical neurone, 95% N2/5% CO2, Cell Death Detection ELISA (DNA fragmentation)
Experimental: Cortical neurons are dissociated from Wistar rat embryos (E17) by a modification of the procedure of Rogers et al. 1997, Brain Res. Bulletin, 44:131. Briefly, cerebral cortices are isolated aseptically from 15-20 Wistar rat embryos. A cell suspension is prepared by mincing the cerebral cortices and digesting them with papain. Cells are washed with ovomucoid enzyme inhibitor and DNaseI and plated onto Poly-D lysine coated plates in high glucose DMEM containing 10% heat-inactivated fetal calf serum, L-glutamine, penicillin and streptomycin. The yield of neurons is […] per embryo and they are 80-90% viable as assessed by Trypan blue exclusion.
The neurons are cultured in complete medium at 37° C. in a normal atmosphere for 48 hours prior to the hypoxia experiments. For hypoxia, the normal cell medium is replaced by oxygen-depleted serum-free medium. Cells are incubated in an atmosphere of 95% N2/5% CO2 for various lengths of time. Compounds are dissolved in DMSO at 100 mM then diluted in medium and added to the culture from time=0. The level of apoptosis is measured using a Cell Death Detection ELISA kit (Roche) which detects DNA fragmentation. Plates are read at 405 nm. Controls included cells cultured in aerobic conditions in serum-containing medium (+serum) and cells cultured in aerobic conditions in serum-deprived medium (−serum).

Jurkat E6.1 cells = test: Anti-Fas induced apoptosis assay; assay type: cell-based; details: Homo sapiens, anti-Fas antibody CH-11 10 ng/ml, 16-18 hrs, DNA fragmentation
Excerpt: Cellular apoptosis may be induced by the binding of Fas ligand (FasL) to its receptor, CD95 (Fas). CD95 is one of a family of related receptors, known as death receptors, which can trigger apoptosis in cells via activation of the caspase enzyme cascade. The process is initiated by the binding of the adapter molecule FADD/MORT-1 to the cytoplasmic domain of the CD-95 receptor-ligand complex. Caspase-8 then binds FADD and becomes activated, initiating a cascade of events that involve the activation of downstream caspases and subsequent cellular apoptosis. Apoptosis can also be induced in cells expressing CD95 e.g., the Jurkat E6.1 T cell lymphoma cell line, using an antibody, rather than FasL, to crosslink the cell surface CD95. Anti-Fas-induced apoptosis is also triggered via the activation of caspase-8. This provides the basis of a cell based assay to screen compounds for inhibition of the caspase-8-mediated apoptotic pathway.
Jurkat E6.1 cells are cultured in complete medium consisting of RPMI-1640 (Sigma No)+10% foetal calf serum (Gibco BRL No. 10099-141)+2 mM L-glutamine (Sigma No. G-7513). The cells are harvested in log phase of growth. 100 ml of cells at 5-8×10^5 cells/ml are transferred to sterile 50 ml Falcon centrifuge tubes and centrifuged for 5 minutes at 100×g at room temperature. The supernatant is removed and the combined cell pellets resuspended in 25 ml of complete medium. The cells are counted and the density adjusted to 2×10^6 cells/ml with complete medium.
The test compound is dissolved in dimethyl sulfoxide (DMSO)(Sigma No. D-2650) to give a 100 mM stock solution. This is diluted to 400 μM in complete medium, then serially diluted in a 96-well plate prior to addition to the cell assay plate.
100 μl of the cell suspension ([…]) is added to each well of a sterile 96-well round-bottomed cluster plate (Costar No. 3790). 50 μl of compound solution at the appropriate dilution and 50 μl of anti-Fas antibody, clone CH-11 (Upstate, Cat No. 1 544 675) at a final concentration of 10 ng/ml, are added to the wells. Control wells are set up minus antibody and minus compound but with a serial dilution of DMSO as vehicle control. The plates are incubated for 16-18 hrs at 37° C. in 5% CO2 and 95% humidity.
Apoptosis of the cells is measured by the quantitation of DNA fragmentation using a ‘Cell Death Detection Assay’ from Roche diagnostics, No. 1544 675. After incubation for 16-18 hrs the assay plates are centrifuged at 100×g at room temperature for 5 minutes. 150 μl of the supernatant are removed and replaced by 150 μl of fresh complete medium. The cells are then harvested and 200 μl of the lysis buffer supplied in the assay kit are added to each well. The cells are triturated to ensure complete lysis and incubated for 30 minutes at 4° C. The plates are then centrifuged at 1900×g for 10 minutes and the supernatants diluted 1:20 in the incubation buffer provided. 100 μl of this solution is then assayed according to the manufacturer's instructions supplied with the kit. OD405 nm is measured 20 minutes after addition of the final substrate in a SPECTRAmax Plus plate reader (Molecular Devices). OD405 nm is plotted versus compound concentration and the IC50 values for the compounds are calculated using the curve-fitting program SOFTmax Pro (Molecular Devices) using the four parameter fit option.

Compound | IC50 [1] [nM] | IC50 (rat cortical neurons) [nM] | IC50 (Jurkat E6.1 cells) [nM]
CC[C@@H](C(=O)N[C@@H](CC(=O)O)C(=O)COc1c(F)c(F)cc(F)c1F)n1cccc(NC(C)=O)c1=O [Compound 1, (S,S)-3-[2-(3-Acetylamino-2-oxo-2H-pyridin-1-yl)-butyrylamino]-4-oxo-5-(2,3,5,6-tetrafluoro-phenoxy)-pentanoic acid] | < 500 | 1000 to 10000 | < 500
CCC(=O)Nc1cccn([C@@H](CC)C(=O)N[C@@H](CC(=O)O)C(=O)COc2c(F)c(F)cc(F)c2F)c1=O [Compound 2, (S,S)-4-Oxo-3-[2-(2-oxo-3-propionylamino-2H-pyridin-1-yl)-butyrylamino]-5-(2,3,5,6-tetrafluoro-phenoxy)-pentanoic acid] | < 500 | < 1000 | < 500
CC[C@@H](C(=O)N[C@@H](CC(=O)O)C(=O)COc1c(F)c(F)cc(F)c1F)n1cccc(NC(=O)C2CC2)c1=O [Compound 4, (S,S)-3-{2-[3-(Cyclopropanecarbonyl-amino)-2-oxo-2H-pyridin-1-yl]-butyrylamino}-4-oxo-5-(2,3,5,6-tetrafluoro-phenoxy)-pentanoic acid] | 500 to 5000 | 1000 to 10000 | < 500
CC[C@@H](C(=O)N[C@@H](CC(=O)O)C(=O)COc1c(F)c(F)cc(F)c1F)n1cccc(NC(=O)C(C)C)c1=O [Compound 5, (S,S)-3-[2-(3-Isobutyrylamino-2-oxo-2H-pyridin-1-yl)-butyrylamino]-4-oxo-5-(2,3,5,6-tetrafluoro-phenoxy)-pentanoic acid] | < 500 | < 1000 | < 500
CC[C@@H](C(=O)N[C@@H](CC(=O)O)C(=O)COc1c(F)c(F)cc(F)c1F)n1cccc(NC(=O)c2ccco2)c1=O [Compound 7, (S,S)-3-(2-{3-[(Furan-2-carbonyl)-amino]-2-oxo-2H-pyridin-1-yl}-butyrylamino)-4-oxo-5-(2,3,5,6-tetrafluoro-phenoxy)-pentanoic acid] | < 500 | 1000 to 10000 | < 500
CC[C@@H](C(=O)N[C@@H](CC(=O)O)C(=O)COc1c(F)c(F)cc(F)c1F)n1cccc(NC(=O)c2ccccc2)c1=O [Compound 11, (S,S)-3-[2-(3-Benzoylamino-2-oxo-2H-pyridin-1-yl)-butyrylamino]-4-oxo-5-(2,3,5,6-tetrafluoro-phenoxy)-pentanoic acid] | < 500 | < 1000 | < 500
CC[C@@H](C(=O)N[C@@H](CC(=O)O)C(=O)COc1c(F)c(F)cc(F)c1F)n1cc(C(F)(F)F)cc(NC(C)=O)c1=O [Compound 13, (S,S)-3-[2-(3-Acetylamino-2-oxo-5-trifluoromethyl-2H-pyridin-1-yl)-butyrylamino]-4-oxo-5-(2,3,5,6-tetrafluoro-phenoxy)-pentanoic acid] | 500 to 5000 | < 1000 | < 500
CC[C@@H](C(=O)N[C@@H](CC(=O)O)C(=O)COc1c(F)c(F)cc(F)c1F)n1cccc(NC(=O)OC)c1=O [Compound 17, (S,S)-3-[2-(3-Methoxycarbonylamino-2-oxo-2H-pyridin-1-yl)-butyrylamino]-4-oxo-5-(2,3,5,6-tetrafluoro-phenoxy)-pentanoic acid] | < 500 | < 1000 | < 500
CC[C@@H](C(=O)N[C@@H](CC(=O)O)C(=O)COc1c(F)c(F)cc(F)c1F)n1cccc(NS(=O)(=O)CC)c1=O [Compound 18, (S,S)-3-[2-(3-Ethanesulfonylamino-2-oxo-2H-pyridin-1-yl)-butyrylamino]-4-oxo-5-(2,3,5,6-tetrafluoro-phenoxy)-pentanoic acid] | 500 to 5000 | 1000 to 10000 | < 500
CCCS(=O)(=O)Nc1cccn([C@@H](CC)C(=O)N[C@@H](CC(=O)O)C(=O)COc2c(F)c(F)cc(F)c2F)c1=O [Compound 19, (S,S)-4-Oxo-3-{2-[2-oxo-3-(propane-1-sulfonylamino)-2H-pyridin-1-yl]-butyrylamino}-5-(2,3,5,6-tetrafluoro-phenoxy)-pentanoic acid] | 500 to 5000 | 1000 to 10000 | < 500
C[C@@H](C(=O)NC(CC(=O)O)C(=O)CF)n1cccc(NC(=O)Cc2ccccc2)c1=O (stereo partly drawn) [Compound 28, (S)-5-Fluoro-4-oxo-3-[2-(2-oxo-3-phenylacetylamino-2H-pyridin-1-yl)-propionylamino]-pentanoic acid] | 500 to 5000 |  | 500 to 2000
CC[C@@H](C(=O)NC(CC(=O)O)C(=O)CF)n1cccc(NC(=O)c2ccccc2)c1=O (stereo partly drawn) [Compound 30, (S)-3-[2-(3-Benzoylamino-2-oxo-2H-pyridin-1-yl)-butyrylamino]-5-fluoro-4-oxo-pentanoic acid] |  | 1000 to 10000 | < 500
CC[C@@H](C(=O)NC(CC(=O)O)C(=O)CF)n1cccc(NC(=O)c2c(Cl)cccc2Cl)c1=O (stereo partly drawn) [Compound 31, (S)-3-{2-[3-(2,6-Dichloro-benzoylamino)-2-oxo-2H-pyridin-1-yl]-butyrylamino}-5-fluoro-4-oxo-pentanoic acid] |  | 1000 to 10000 | < 500
CC[C@@H](C(=O)NC(CC(=O)O)C(=O)CF)n1cccc(NC(=O)c2ccccn2)c1=O (stereo partly drawn) [Compound 32, (S)-5-Fluoro-4-oxo-3-(2-{2-oxo-3-[(pyridine-2-carbonyl)-amino]-2H-pyridin-1-yl}-butyrylamino)-pentanoic acid] |  |  | < 500
CC[C@@H](C(=O)NC(CC(=O)O)C(=O)CF)n1cccc(NC(=O)Cc2ccccc2)c1=O (stereo partly drawn) [Compound 33, (S)-5-Fluoro-4-oxo-3-[2-(2-oxo-3-phenylacetylamino-2H-pyridin-1-yl)-butyrylamino]-pentanoic acid] |  |  | < 500
CC[C@@H](C(=O)NC(CC(=O)O)C(=O)CF)n1cccc(NC(=O)Cc2cccc(C)c2)c1=O (stereo partly drawn) [Compound 34, (S)-5-Fluoro-4-oxo-3-{2-[2-oxo-3-(2-m-tolyl-acetylamino)-2H-pyridin-1-yl]-butyrylamino}-pentanoic acid] |  | 1000 to 10000 | < 500
CCC[C@@H](C(=O)NC(CC(=O)O)C(=O)CF)n1cccc(NC(=O)CC)c1=O (stereo partly drawn) [Compound 35, (S)-5-Fluoro-4-oxo-3-[2-(2-oxo-3-propionylamino-2H-pyridin-1-yl)-pentanoylamino]-pentanoic acid] |  | 1000 to 10000 | < 500
CC[C@@H](C(=O)NC(CC(=O)O)C(=O)CF)n1cc(C)cc(NC(=O)Cc2ccccc2)c1=O (stereo partly drawn) [Compound 37, (S)-5-Fluoro-3-[2-(5-methyl-2-oxo-3-phenylacetylamino-2H-pyridin-1-yl)-butyrylamino]-4-oxo-pentanoic acid] |  | 1000 to 10000 | < 500
